Assay results as given in patent publication US7351857B2, “Methods of using substituted tetralins and indanes” (Janssen Pharmaceutica N.V., priority 2002, dated 2008).

How the values were obtained:
[1] = target: T1, PPARγ (Homo sapiens, UniProt P37231); assay: aP2 assay for PPAR gamma agonists (bDNA aP2 mRNA in preadipocytes); type: cell-based; conditions: unbracketed values; PPARγ standard FI = 70.3
T1 construct: Following the challenge of the preadipocytes, cells may be lysed with lysis buffer; endogenous in cells; host or cells: preadipocytes
T1 sequence (P37231 1-505): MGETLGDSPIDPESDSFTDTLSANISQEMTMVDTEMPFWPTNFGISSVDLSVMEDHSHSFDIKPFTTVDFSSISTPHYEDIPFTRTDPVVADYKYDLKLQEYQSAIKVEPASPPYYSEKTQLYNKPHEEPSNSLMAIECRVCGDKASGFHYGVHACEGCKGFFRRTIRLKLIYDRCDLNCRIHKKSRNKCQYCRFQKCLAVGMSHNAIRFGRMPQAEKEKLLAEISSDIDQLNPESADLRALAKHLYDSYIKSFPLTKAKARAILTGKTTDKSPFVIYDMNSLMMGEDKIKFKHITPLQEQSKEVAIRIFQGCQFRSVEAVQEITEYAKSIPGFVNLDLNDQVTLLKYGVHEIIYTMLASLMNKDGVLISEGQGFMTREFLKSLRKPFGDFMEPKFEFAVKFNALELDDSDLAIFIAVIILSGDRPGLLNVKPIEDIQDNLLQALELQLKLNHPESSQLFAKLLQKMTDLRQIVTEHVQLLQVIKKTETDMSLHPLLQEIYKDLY
Method: The procedure is described in detail in Burris et al., Molecular Endocrinology, 1999, 13:410, which is hereby incorporated by reference in its entirety, and aP2 assay results of agonist intrinsic activity may be presented as fold increase over vehicle in induction of aP2 mRNA production.
Twenty-four hours after the initial seeding of the 96-well plates by hand (around 20,000/well), the differentiation assay may be initiated. Medium may be removed and replaced with 150 μl of differentiation medium containing vehicle (DMSO) or test compounds. Cells may be returned to incubator for 24 hours culture. At the termination of the challenge, medium may be removed and 100 ul of lysis buffer may be added to initiate the bDNA aP2 mRNA assay. The branched DNA assay may be performed according to the manufacturer's protocol (Bayer Diagnostics; Emeryville, Calif.). Result may be expressed as the fold increase of aP2 mRNA production activated over vehicle controls. EC50's and Emax may be determined by non-linear regression with a sigmoidal fit curve.
Following the challenge of the preadipocytes, cells may be lysed with lysis buffer (Bayer Diagnostics) containing the aP2 oligonucleotides. After a 15 minute incubation at 53° C. or 30 minutes at 37° C. incubator, 70 ul of the lysis buffer from each well may be added to a corresponding capture well (preincubated with 70 ul of blocking buffer (Bayer Diagnostics)). The capture plate may be incubated overnight at 53° C. in a plate incubator (Bayer Diagnostics). After this incubation, the bDNA and labeled probes may be annealed as directed by the manufacturer. Following a 30-minute incubation with the luminescent alkaline phosphatase substrate, dioxitane, the luminescence may be quantitated in a Dynex MLX microtiter plate luminometer. Oligonucleotide probes designed to anneal to the aP2 mRNA and function in the bDNA mRNA detection system are designed with ProbeDesigner software (Bayer Diagnostics). This software package analyzes a target sequence of interest with a series of algorithms in order to determine which regions of the sequence can perform as locations for capture, label, or spacer probe annealing. The sequences of the oligonucleotides are as follows: […]

[2] = target: T2, PPARδ (Homo sapiens, UniProt Q03181); assay: Transfection assay for PPARδ receptors (PPAR-Gal4 / Gal4-luciferase reporter in HEK293 cells); type: cell-based; conditions: for PPARδ FI (fold induction): unbracketed values, PPARδ standard FI = 36.1
T2 sequence (Q03181 171-441 limits assumed): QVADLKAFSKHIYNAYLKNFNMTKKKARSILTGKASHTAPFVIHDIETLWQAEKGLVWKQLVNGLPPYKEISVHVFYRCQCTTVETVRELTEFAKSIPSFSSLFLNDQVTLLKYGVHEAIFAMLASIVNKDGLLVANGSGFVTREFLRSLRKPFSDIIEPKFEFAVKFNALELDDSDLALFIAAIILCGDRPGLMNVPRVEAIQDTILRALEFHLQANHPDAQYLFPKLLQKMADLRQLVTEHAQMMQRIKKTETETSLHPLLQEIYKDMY
Method: HEK293 cells were grown in DMEM/F-12 Media supplemented with 10% FBS and glutamine (GIBCOBRL). The cells were co-transfected with DNA for PPAR-Gal4 receptor and Gal4-Luciferase Reporter using the DMRIE-C Reagent. On the following day, the DNA-containing medium were replaced with 5% Charcoal treated FBS growth medium. After six hours, cells were seeded in 96 well plate and incubated at 37° C. in CO2 incubator overnight. Cells were challenged by test compounds and incubated for 24 hours at 37° C. in 5% CO2 incubator. Luciferase activity was assayed using the Steady-Glo Luciferase Assay Kit from Promega. DMRIE-C Reagent was purchased from GIBCO Cat. No. 10459-014. OPTI-MEM I Reduced Serum Medium was purchased from GIBCO Cat. No. 31985. Steady-Glo Luciferase Assay Kit was obtained from Promega Part# E254B.

SMILES	PPARγ FI (fold induction) [1]	PPARδ FI (fold induction) [2]	further results
CCN(C(=O)Nc1ccc(SC(F)(F)F)cc1)C1Cc2ccc(SC(C)(C)C(=O)O)cc2C1 (centres unmarked) [Example 4, 2-{2-[1-Ethyl-3-(4-trifluoromethylsulfanylphenyl)ureido]indan-5-ylsulfanyl}-2-methylpropionic acid]	3.7		
CCN(C(=O)Nc1ccc(N(C)C)cc1)C1Cc2ccc(SC(C)(C)C(=O)O)cc2C1 (centres unmarked) [Example 7, 2-{2-[3-(4-Dimethylaminophenyl)-1-ethylureido]indan-5-ylsulfanyl}-2-methylpropionic acid]		0.8	
CCCCCN(C(=O)Nc1ccc(C(C)C)cc1)C1Cc2ccc(SC(C)(C)C(=O)O)cc2C1 (centres unmarked) [Example 10, 2-{2-[3-(4-Isopropylphenyl)-1-(pentyl)ureido]indan-5-ylsulfanyl}-2-methylpropionic acid]	5.1		
CCCCCN(C(=O)Nc1ccc(C(C)(C)C)cc1)C1Cc2ccc(SC(C)(C)C(=O)O)cc2C1 (centres unmarked) [Example 11, 2-{2-[3-(4-tert-butylphenyl)-1-(pentyl)ureido]indan-5-ylsulfanyl}-2-methylpropionic acid]	6.1		
CCCCCN(C(=O)Nc1ccc(-c2ccccc2)cc1)C1Cc2ccc(SC(C)(C)C(=O)O)cc2C1 (centres unmarked) [Example 12, 2-[2-(3-Biphenyl-4-yl-1-pentylureido)indan-5-ylsulfanyl]-2-methylpropionic acid]	11		
CCCCCCN(C(=O)Nc1ccc(C(C)C)cc1)C1Cc2ccc(SC(C)(C)C(=O)O)cc2C1 (centres unmarked) [Example 13, 2-{2-[3-(4-Isopropylphenyl)-1-(hexyl)ureido]indan-5-ylsulfanyl}-2-methylpropionic acid]	1.2		
CCCCCCN(C(=O)Nc1ccc(SC(F)(F)F)cc1)C1Cc2ccc(SC(C)(C)C(=O)O)cc2C1 (centres unmarked) [Example 15, 2-Methyl-2-{2-[1-hexyl-3-(4-trifluoromethylsulfanylphenyl)ureido]indan-5-ylsulfanyl}propionic acid]		1.2	
CCCN(C(=O)Nc1ccc(OC(F)(F)F)cc1)C1Cc2ccc(SC(C)(C)C(=O)O)cc2C1 (centres unmarked) [Example 16, 2-Methyl-2-{2-[1-propyl-3-(4-trifluoromethoxyphenyl)ureido]indan-5-ylsulfanyl}propionic acid]	0.37		
CCCCN(C(=O)Nc1ccc(SC(F)(F)F)cc1)C1Cc2ccc(SC(C)(C)C(=O)O)cc2C1 (centres unmarked) [Example 17, 2-Methyl-2-{2-[1-butyl-3-(4-trifluoromethylsulfanylphenyl)ureido]indan-5-ylsulfanyl}propionic acid]	0.43		
CC(C)(Sc1ccc2c(c1)CC(NC(=O)Nc1ccc(OC(F)(F)F)cc1)C2)C(=O)O (centres unmarked) [Example 18, 2-Methyl-2-{2-[3-(4-trifluoromethoxyphenyl)ureido]indan-5-ylsulfanyl}propionic acid]	0.31		
C=CCCCN(C(=O)Nc1ccc(OC(F)(F)F)cc1)C1Cc2ccc(SC(C)(C)C(=O)O)cc2C1 (centres unmarked) [Example 19, 2-Methy-2-{2-[1-pent-4-enyl-3-(4-trifluoromethoxyphenyl)ureido]indan-5-ylsulfanyl}propionic acid]		1.4	
CC(C)CCN(C(=O)Nc1ccc(OC(F)(F)F)cc1)C1Cc2ccc(SC(C)(C)C(=O)O)cc2C1 (centres unmarked) [Example 20, 2-Methyl-2-{2-[1-(3-methylbutyl)-3-(4-trifluoromethoxyphenyl)ureido]indan-5-ylsulfanyl}-2-methylpropionic acid]	0.44		
CC(C)CCN(C(=O)Nc1ccc(C(C)C)cc1)C1Cc2ccc(SC(C)(C)C(=O)O)cc2C1 (centres unmarked) [Example 21, 2-{2-[3-(4-Isopropylphenyl)-1-(3-methylbutyl)ureido]indan-5-ylsulfanyl}-2-methylpropionic acid]	0.05		
CCN(C(=O)Nc1ccc(OC(F)(F)F)c(Br)c1)C1Cc2ccc(SC(C)(C)C(=O)O)cc2C1 (centres unmarked) [Example 25, 2-{2-[3-(3-Bromo-4-trifluoromethoxyphenyl)-1-ethylureido]indan-5-ylsulfanyl}-2-methylpropionic acid]		4.5	
CCN(C(=O)Nc1cccc(OC(F)(F)F)c1)C1Cc2ccc(SC(C)(C)C(=O)O)cc2C1 (centres unmarked) [Example 26, 2-{2-[1-Ethyl-3-(3-trifluoromethoxyphenyl)ureido]indan-5-ylsulfanyl}-2-methylpropionic acid]		2.1	
CC(C)(Sc1ccc2c(c1)CC(N(CCCC1CCCC1)C(=O)Nc1ccc(OC(F)(F)F)cc1)C2)C(=O)O (centres unmarked) [Example 28, 2-{2-[1-(3-Cyclopentylpropyl)-3-(4-trifluoromethoxyphenyl)ureido]indan-5-ylsulfanyl}-2-methylpropionic acid]		8.2	
CCCN(C(=O)Nc1ccc(OC)cc1)C1Cc2ccc(SC(C)(C)C(=O)O)cc2C1 (centres unmarked) [Example 32, 2-{2-[3-(4-Methoxyphenyl)-1-propylureido]indan-5-ylsulfanyl}-2-methylpropionic acid]		1.5	
CCCN(C(=O)Nc1cc(C)cc(C)c1)C1Cc2ccc(SC(C)(C)C(=O)O)cc2C1 (centres unmarked) [Example 33, 2-{2-[3-(3,5-Dimethylphenyl)-1-propylureido]indan-5-ylsulfanyl}-2-methylpropionic acid]		0.8	
CCCN(C(=O)Nc1ccc(C(F)(F)F)cc1)C1Cc2ccc(SC(C)(C)C(=O)O)cc2C1 (centres unmarked) [Example 35, 2-Methyl-2-{2-[1-propyl-3-(4-trifluoromethylphenyl)ureido]indan-5-ylsulfanyl}-propionic acid]		5.6	
CC(C)(Sc1ccc2c(c1)CC(N(CCCC1CCCC1)C(=O)Nc1ccccc1)C2)C(=O)O (centres unmarked) [Example 37, 2-{2-[1-(3-Cyclopentylpropyl)-3-phenylureido]indan-5-ylsulfanyl}-2-methylpropionic acid]		1.9	
CCCCCN(C(=O)Nc1ccc2ccccc2c1)C1Cc2ccc(SC(C)(C)C(=O)O)cc2C1 (centres unmarked) [Example 39, 2-Methyl-2-[2-(3-naphthalen-2-yl-1-pentylureido)indan-5-ylsulfanyl]propionic acid]		9.3	
CCCN(C(=O)Nc1ccc(OC(F)(F)F)cc1)C1CCc2ccc(SC(C)(C)C(=O)O)cc2C1 (centres unmarked) [Example 46, 2-Methyl-2-{7-[1-propyl-3-(4-trifluoromethoxyphenyl)ureido}-5,6,7,8-tetrahydronaphthalen-2-ylsulfanyl}propionic acid]		6.0	
CCN(C(=O)Nc1ccc(C(C)(C)C)cc1)C1CCc2cc(SC(C)(C)C(=O)O)c(OC)cc2C1 (centres unmarked) [Example 49, 2-{6-[3-(4-tert-Butylphenyl)1-ethylureido]-3-methoxy-5,6,7,8-tetrahydronaphthalen-2-ylsulfanyl}-2-methyl propionic acid]			EC50 ([2]; bracketed values): > 3 µM
